US8940911B2, “Squarylated lactones inhibitors for bacterial biofilm formation” (Syracuse University, priority 2012, dated 2015)

Tested on: SK-N-SH cells
Experiment: Human neuroblastoma cancer cell cytotoxicity assay (CCK-8)
Format: cell-based
Conditions: 200 or 300 μM, 1 h exposure, read after 24 h
Method: After examining the efficacy of SHLs at inhibiting biofilm, dispersing established biofilms, and reducing the maximum thickness of biofilms without being toxic to the planktonic bacterial cells, we tested the cytotoxicity of the key potent SHLs on the human neuroblastoma cancer cell line SK-N-SH. These studies were conducted such that the SK-N-SH cells were subjected to the maximum concentrations of the key potent SHLs tested on bacteria.
A previously grown T-flask of SK-N-SH cells was observed under a microscope to confirm the confluence of the cells. Next, the old media was discarded and the adherent cells were washed with ˜10 mL of MEM(−). The wash was discarded and 2 mL of Trypsin-EDTA solution was added to the T-flask and incubated for 10 minutes at 37° C. and at 5% atmosphere of CO2. Afterwards, the flask was viewed under a microscope to determine if the cells were suspended in the solution. Subsequently, ˜8 mL of MEM(+) was added to the flask and carefully mixed via pipette to break-up any large clusters of cells. 100 μL of the culture was added to an Eppendorf tube and combined with 100 μL of […]. A hemocytometer and glass cover slide was carefully cleaned with a kimwipe and ethanol. Placing the glass cover slide on top of the hemocytometer, 10 μL of the mixture in the Eppendorf tube was pipetted into the two grooves on the hemocytometer, avoiding the generation of bubbles. The hemocytometer was viewed one chamber at time under a microscope and the live cells were counted using the hemocytometer cell counting method. The remaining cell culture in the T-flask was diluted with MEM(+) to 25 mL such that there would be ˜5000 cells/mL. 100 μL of the culture was placed into wells on a 96 well plate such that one column had only MEM(+) and the wells on the outer perimeter of the plate were left empty. Four plates were made in this manner so that there would be plates for times 0, 24, 48, and 72 h. The plate was then incubated for 24 h at 37° C. and at 5% atmosphere of CO2. Subsequently, the old media was discarded and the wells were subjected to either 200 μM or 300 μM solutions of compounds 3, 4, 8, and 46 in MEM(+) (100 μL) such that one column still contained only MEM(+) and one column contained MEM(+) and untreated cells. The plate was incubated for 1 h and then the solutions were discarded and fresh MEM(+) media was added (100 μL). Each plate was then incubated for the desired time (0, 24, 48, or 72 h). After incubation, 10 μL of CCK-8 solution was added to each well and then the plate was incubated for 2 h followed by reading the OD450 with a microplate reader.

Row | Structure (SMILES) | cytotoxicity on human neuroblastoma cancer cells (in words)
1 | CCCCOc1c(NC2CCCC2)c(=O)c1=O [butoxy-SCPA 46] | toxic
2 | C=Cc1c(NC2CCOC2=O)c(=O)c1=O (centres unmarked) [vinyl-SHL 3] | toxic
